What was measured:
human hepatocytes = assay: Metabolic conversion of prodrugs to active forms in human hepatocytes (LC-MS/MS); format: in vitro ADME; settings: for metabolic conversion of prodrug to active metabolite in human hepatocytes: active metabolites Example 1-A, Example 14-A and penciclovir, respectively
Description: Metabolism of Prodrugs: Formula (II) or Formula (IIa) A study was undertaken to evaluate the metabolic conversion of prodrugs, formula (II) or formula (IIa), to compounds of formula (I) or formula (Ia) of the present invention. The produgs, formula (II) or formula (IIa), can be metabolized to the active compound of formula (I) or formula (Ia) and other compounds of the invention in the body if they are served as prodrugs. Hepatocytes are often used to assess the degree of metabolic conversion of prodrugs in the body of animal or human. A study was undertaken to evaluate the metabolic conversion of prodrugs, Example 2-A, Example 3-A, Example 4-A, Example 16-A and Example 17-A, to the corresponding active forms, Example 1-A and Example 14-A, in the presence of human hepatocytes. The formation of active forms, Example 1-A and Example 14-A, were monitored in the study. For comparison, the metabolic conversion of famciclovir to penciclovir was also assessed. Cryopreserved hepatocytes plating medium (Cat.#: PY-HMD-01) was purchased from RILD Research Institute for Liver Diseases (Shanghai) Co. Ltd. Cryopreserved human hepatocyte (Cat.#: X008005, Lot#:VRR) was purchased from In Vitro Technologies (Baltimore, Md.). The stock hepatocyte suspension was prepared from cryopreserved hepatocytes in plating medium at the concentration of 1.8×10^6 cells/mL. […] Reaction suspensions were prepared in 24-well cell culture plate by mixing 200 μL of hepatocytes suspension (Cyno or human) and 200 μL of working solution. The final incubation contained 0.9×10^6 cells/mL and 50 μM compound. The above mixtures were incubated at 37° C. in a humidified 5% CO2 atmosphere, with a 150 rpm shaking. After 180 min of incubation, 200 μL of the incubation mixture was transferred to 1.5 mL tube and quenched with 400 μL stop solution (ice-cold acetonitrile with 0.2 μM Tolbutamide as internal standard). The samples were centrifuged at 12000 rpm for 10 minutes and the resultant supernatants were subjected to LC-MS/MS analysis. The calibration curves were prepared in the following way. To a 200 μL of cell suspension (cell density of 1.8 million cells/mL), 198 μL of hepatocyte plating medium and 2 μL of the appropriate concentration of the compound in DMSO were added. Samples were mixed thoroughly and 200 μL of the mixture was transferred to 400 uL of the stop solution (see above). […] The compounds were quantified on an API5500 […] instrument in the ESI-Positive MRM mode.

human TLR7 = human TLR7 (Homo sapiens (Human), UniProt Q9NYK1); assay: HEK293-Blue-hTLR-7 cells assay (SEAP reporter, NF-κB activation); format: cell-based; settings: HEK293-Blue-hTLR-7 cells, 20 hours incubation, SEAP reporter; read-out: HEK293- hTLR-7 EC50
human TLR7, sequence (Q9NYK1 27-1049): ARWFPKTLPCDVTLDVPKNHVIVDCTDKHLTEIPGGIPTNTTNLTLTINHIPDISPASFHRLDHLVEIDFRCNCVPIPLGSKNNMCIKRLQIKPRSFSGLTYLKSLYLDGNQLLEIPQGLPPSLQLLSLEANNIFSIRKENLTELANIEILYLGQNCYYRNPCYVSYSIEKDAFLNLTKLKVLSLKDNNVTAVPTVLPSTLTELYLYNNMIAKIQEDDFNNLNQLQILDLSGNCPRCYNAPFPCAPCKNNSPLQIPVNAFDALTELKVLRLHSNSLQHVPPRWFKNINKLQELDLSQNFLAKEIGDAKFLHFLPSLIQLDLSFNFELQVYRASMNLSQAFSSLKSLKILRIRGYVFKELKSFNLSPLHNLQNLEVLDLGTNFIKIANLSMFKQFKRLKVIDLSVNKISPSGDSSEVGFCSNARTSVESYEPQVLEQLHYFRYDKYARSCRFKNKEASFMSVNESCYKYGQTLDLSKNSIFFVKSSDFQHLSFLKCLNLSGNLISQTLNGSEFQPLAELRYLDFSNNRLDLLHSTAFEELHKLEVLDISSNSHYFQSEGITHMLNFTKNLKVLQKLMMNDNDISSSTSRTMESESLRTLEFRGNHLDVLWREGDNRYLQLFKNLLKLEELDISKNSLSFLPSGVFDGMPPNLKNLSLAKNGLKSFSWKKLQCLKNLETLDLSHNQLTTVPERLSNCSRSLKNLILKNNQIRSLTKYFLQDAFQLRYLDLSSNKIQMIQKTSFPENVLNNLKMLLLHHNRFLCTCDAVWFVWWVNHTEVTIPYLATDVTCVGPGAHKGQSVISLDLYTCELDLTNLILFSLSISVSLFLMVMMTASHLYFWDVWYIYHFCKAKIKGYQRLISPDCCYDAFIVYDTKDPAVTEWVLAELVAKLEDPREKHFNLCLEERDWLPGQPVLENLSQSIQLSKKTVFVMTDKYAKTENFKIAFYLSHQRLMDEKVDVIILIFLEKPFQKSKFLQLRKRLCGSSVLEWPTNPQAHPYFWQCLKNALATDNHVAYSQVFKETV
Description: HEK293-Blue-hTLR-7 Cells Assay: A stable HEK293-Blue-hTLR-7 cell line was purchased from InvivoGen (Cat.#: hkb-htlr7, San Diego, Calif., USA). These cells were designed for studying the stimulation of human TLR7 by monitoring the activation of NF-κB. A SEAP (secreted embryonic alkaline phosphatase) reporter gene was placed under the control of the IFN-β[…] minimal promoter fused to five NF-κB and AP-1-binding sites. The SEAP was induced by activating NF-κB and AP-1 via stimulating HEK-Blue hTLR7 cells with TLR7 ligands. Therefore the reporter expression was regulated by the NF-κB promoter upon stimulation of human TLR7 for 20 hours. The cell culture supernatant SEAP reporter activity was determined using QUANTI-Blue™ kit (Cat.#: rep-qb1, Invivogen, San Diego, Calif., USA) at a wavelength of 640 nm, a detection medium that turns purple or blue in the presence of alkaline phosphatase. […] Then 20 μL of the supernatant from each well was incubated with 180 μL Quanti-blue substrate solution at 37° C. for 2 hours and the absorbance was read at 620˜655 nm using a spectrophotometer. […] Hiroaki Hemmi et al, Nature Immunology 3, 196-200 (2002).

murine TLR7 = murine TLR7 (Mus musculus (Mouse), UniProt P58681); assay: HEK293-Blue-mTLR7 cell assay (SEAP reporter); format: cell-based; settings: HEK293-Blue-mTLR7 cells, 20 hours incubation; read-out: EC50 of murine TLR7 activation
murine TLR7, sequence (P58681 27-1050 limits assumed): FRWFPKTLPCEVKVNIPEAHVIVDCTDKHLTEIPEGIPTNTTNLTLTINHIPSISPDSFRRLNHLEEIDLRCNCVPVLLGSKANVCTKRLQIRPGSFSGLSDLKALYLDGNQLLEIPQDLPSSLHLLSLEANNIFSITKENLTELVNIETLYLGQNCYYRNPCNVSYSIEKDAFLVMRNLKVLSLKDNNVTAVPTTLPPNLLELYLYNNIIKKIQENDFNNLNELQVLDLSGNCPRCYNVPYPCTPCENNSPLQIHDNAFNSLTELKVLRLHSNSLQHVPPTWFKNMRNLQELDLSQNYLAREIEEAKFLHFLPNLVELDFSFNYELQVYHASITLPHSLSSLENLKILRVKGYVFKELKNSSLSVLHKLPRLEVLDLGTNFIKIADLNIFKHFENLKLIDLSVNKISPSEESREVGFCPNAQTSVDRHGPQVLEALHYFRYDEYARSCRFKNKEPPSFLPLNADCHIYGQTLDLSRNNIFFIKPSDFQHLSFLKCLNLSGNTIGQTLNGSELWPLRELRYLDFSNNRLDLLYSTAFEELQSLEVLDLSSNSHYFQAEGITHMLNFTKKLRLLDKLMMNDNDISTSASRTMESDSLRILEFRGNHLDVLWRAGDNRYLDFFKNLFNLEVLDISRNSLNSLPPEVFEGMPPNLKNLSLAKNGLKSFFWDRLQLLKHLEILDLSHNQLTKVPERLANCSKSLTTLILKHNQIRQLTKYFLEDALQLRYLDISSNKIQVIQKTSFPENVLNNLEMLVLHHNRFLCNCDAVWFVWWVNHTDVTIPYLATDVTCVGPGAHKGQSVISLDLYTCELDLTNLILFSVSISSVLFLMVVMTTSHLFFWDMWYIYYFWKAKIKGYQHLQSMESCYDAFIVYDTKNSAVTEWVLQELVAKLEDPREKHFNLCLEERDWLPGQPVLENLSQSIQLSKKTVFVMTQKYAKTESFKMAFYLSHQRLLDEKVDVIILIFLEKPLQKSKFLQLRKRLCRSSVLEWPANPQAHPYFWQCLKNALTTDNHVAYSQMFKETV
Description: FIG. 1: Example 1-A activates murine TLR7 in a HEK-Blue-mTLR assay. The cells were incubated with Example 1-A and a positive control GS-9620 at indicated concentrations for 20 hours. The activation of murine TLR7 was measured using a Quanti-Blue assay.
TLR7 Agonist Example 1-A Activates Murine TLR7
The potency of the TLR7 agonist Example 1-A activating murine TLR7 was assessed using a stable HEK293-Blue-mTLR7 cell line available from InvivoGen (Cat.#: hkb-mtlr7, San Diego, Calif., USA). Similar to the HEK293-Blue-hTLR7 as described in Example 43, the HEK293-Blue-mTLR7 is designed for studying the stimulation of murine TLR7 by monitoring the activation of NF-κB. A SEAP reporter gene was placed under the control of the IFN-β minimal promoter fused to five NF-κB and AP-1-binding sites. The SEAP expression was induced by the activation of NF-κB and AP-1 upon stimulation of murine TLR7 with TLR7 ligands. SEAP expression in cell culture supernatant was determined using a QUANTI-Blue™ kit (Cat.#: rep-qb1, Invivogen, San Diego, Calif., USA), a detection medium that turns purple/blue in the presence of alkaline phosphatase, at a wavelength of 655 nm. […]

murine PBMC = assay: In vitro cytokine induction in murine PBMC (multiplex assay); settings: 2 to 10 μM, 24 hours, dose-dependent
Description: Supernatants were collected at 24 hour post treatment and cytokine levels in supernatants were assessed by a multiplex assay.
50 μL of cell culture medium was collected and analyzed with a 36 plex Procarta multiplex kit (ebioscience EPX360-26092-901, eBioscience), which measured the levels of 15 cytokine analytes, following the manufacturer's instruction.

HBV (hepatitis B virus) = assay: In vivo antiviral efficacy in AAV-HBV mouse model; settings: QOD, mouse serum
Description: The treatment started after the mice were infected with AAV-HBV for 29 days. They were given the treatment for 42 days, and HBV DNA and HBsAg in mouse serum were measured on the indicated time points by RT-qPCR and HBsAg CLIA respectively. The results were presented as mean±SEM. LLQ: lower limit of quantification.
This mouse model for HBV infection was generated by injecting C57BL/6 mice with a recombinant adeno-associated virus (AAV) carrying a replicable HBV (hepatitis B virus) genome (AAV-HBV).
For each study, ten 4-5 week old male C57BL/6 mice, specific pathogen free, were available from Shanghai Laboratory Animal Center of Chinese Academy of Sciences (SLAC) and housed in an animal care facility in individually ventilated cages under controlled temperature and light conditions following the Institutional Animal Care guidelines. AAV-HBV virus stock was purchased from Beijing FivePlus Molecular Medicine Institute (Beijing, China). C57BL/6 mice were injected with 200 μL of recombinant virus in saline buffer through tail vein injection. The mice were bled on day 14 post injection to monitor the levels of HBsAg, HBeAg, and HBV genomic DNA in serum, and randomly grouped based on these HBV biomarker levels.
All the mice were treated for a total of 6 weeks. Serum samples were collected twice a week to monitor the levels of HBV biomarkers. Serum HBsAg was measured using CLIA kits (Autobio Diagnostics Co., Ltd, Zhengzhou, China) according to the manufacturer's instructions. The lower limit of quantification (LLQ) for HBsAg was 0.1 ng/mL. Serum dilution of 500-fold (for HBsAg) was used to obtain values within the linear range of the standard curve. Serum HBV DNA was extracted using a MagNA Pure 96 DNA and Viral NA Small Volume Kit (Roche) following the manufacturer's instructions. The DNA samples were analyzed by real-time quantitative PCR (qPCR) using a HBV-specific primer and probe set for specific amplification and detection of a 128 bp HBV genome region from the nucleotide 2969 to 3096. The LLQ for HBV DNA was 20 copies/μL.

[1] = 100 mg/kg PO, after the 6-week treatment
[2] = 300 mg/kg PO, at the end of the treatment (6 weeks)

Row | SMILES | metabolic conversion of prodrug to active metabolite in human hepatocytes (human hepatocytes) | EC50 (human TLR7) [µM] | further results
1 | CCC(O)[C@@H]1C[C@@H](OC(C)=O)[C@H](n2c(=O)sc3cnc(N)nc32)O1 (single isomer, unassigned) [Example 3-A] | metabolized to yield the corresponding active metabolites | – | –
2 | CCC(O)[C@@H]1C[C@@H](O)[C@H](n2c(=O)sc3c(=O)[nH]c(N)nc32)O1 (single isomer, unassigned) [Example 1-A] | – | 52 | EC50 (murine TLR7): 71.8 µM; IFNα induction (murine PBMC): high levels; IL-6 induction (murine PBMC): high levels; IP10 induction (murine PBMC): high levels; TNFα induction (murine PBMC): high levels
3 | CC(=O)OC(C1CC1)[C@@H]1C[C@@H](O)[C@H](n2c(=O)sc3cnc(N)nc32)O1 (single isomer, unassigned) [Example 16-A] | metabolized to yield the corresponding active metabolites | – | –
4 | CCC(O)[C@@H]1C[C@@H](O)[C@H](n2c(=O)sc3cnc(N)nc32)O1 (single isomer, unassigned) [Example 2-A] | metabolized to yield the corresponding active metabolites | – | –
5 | CC(=O)OCC(CCn1cnc2cnc(N)nc21)COC(C)=O [Famciclovir, famciclovir, reference compound] | metabolized to yield the corresponding active metabolites | – | –
6 | Nc1ncc2sc(=O)n([C@@H]3O[C@H](C(O)C4CC4)C[C@H]3O)c2n1 (stereo partly drawn) [Example 17-A, 5-Amino-3-[(2R,3R,5S)-5-[cyclopropyl(hydroxy)methyl]-3-hydroxy-tetrahydrofuran-2-yl]thiazolo[4,5-d]pyrimidin-2-one] | metabolized to yield the corresponding active metabolites | – | Product Concentration in human hepatocytes (metabolized product formed from prodrug) (human hepatocytes; after 3-hour incubation of 50 μM of prodrugs, product 1-A, 14-A or Penciclovir): 7.3 µM
7 | CCC(OC(C)=O)[C@@H]1C[C@@H](O)[C@H](n2c(=O)sc3cnc(N)nc32)O1 (single isomer, unassigned) [Example 4-A] | metabolized to yield the corresponding active metabolites | – | reduction in HBV DNA (HBV (hepatitis B virus); [1]): more than 2 log; reduction in HBsAg (HBV (hepatitis B virus); [1]): 1.5 log; reduction in HBV DNA (HBV (hepatitis B virus); [2]): more than 3 log; reduction in HBsAg (HBV (hepatitis B virus); [2]): 2.7 log
8 | CC#C[C@H](O)[C@@H]1C[C@@H](C)[C@H](n2c(=O)sc3c(=O)[nH]c(N)nc32)O1 [Example 29, 5-Amino-3-[(2R,3R,5S)-5-[(1S)-1-hydroxybut-2-ynyl]-3-methyl-tetrahydrofuran-2-yl]-6H-thiazolo[4,5-d]pyrimidine-2,7-dione] | – | 29 | –
9 | Nc1nc2c(sc(=O)n2[C@@H]2O[C@H](C(O)C3CC3)C[C@H]2O)c(=O)[nH]1 (single isomer, unassigned) [Example 14-A] | – | 48 | –
10 | Nc1nc2c(sc(=O)n2[C@@H]2O[C@H](CO)C[C@H]2O)c(=O)[nH]1 [ANA-122, reference compound] | – | 446 | –

— patent publication US10040815B2, “3-substituted 5-amino-6H-thiazolo[4,5-d]pyrimidine-2,7-dione compounds for the treatment and prophylaxis of virus infection” (Hoffmann-La Roche Inc., priority 2014, dated 2018)
